Test results reported in the supplement of paper PMC10307832.

How the values were obtained:
Test in all cases: relative viability (nuclei count vs DMSO), 5 days (fraction); higher = more cells survive
[1] = compound: NC(=O)Nc1cc(-c2cccc(F)c2)sc1C(=O)N[C@H]1CCCNC1 [AZD7762]
Summary of the method: (§1)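 After an overnight hold at 37 °C, lung cancer cell lines in 1536-well plates were pinned with five library-drug doses (not always all listed), each √10 from the next, on vehicle-anchored plates. The cells stayed 5 days without fresh medium, then a one-step fix, permeabilisation and Hoechst stain preceded 4× imaging and MetaXpress nuclear counts. A plate passed only with control CV under 25% and at least one doubling. Viability is the median, over plates, of treated-well nuclei relative to vehicle-well nuclei.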

[2] = compound: CCCCCCCC[C@H]1[C@@H](C(=C)C(=O)O1)C(=O)O [C-75]
Summary of the method: as §1

[3] = compound: CC1(C)CCC(c2ccc(Cl)cc2)=C(CN2CCN(c3ccc(C(=O)NS(=O)(=O)c4ccc(N[C@H](CCN5CCOCC5)CSc5ccccc5)c(S(=O)(=O)C(F)(F)F)c4)cc3)CC2)C1 [Navitoclax]
Summary of the method: as §1

[4] = compound: O=C(O)c1ccc(-c2c[nH]c3ncc(-c4ccccc4)cc23)cc1C1CCCC1
Summary of the method: as §1

[5] = compound: Oc1nc(-c2ccc(C(F)(F)F)cc2)nc2c1CSCC2 [XAV939]
Summary of the method: as §1

Row | Cell Line | relative viability ([1]; 0.01 µM) | relative viability ([1]; 0.03162 µM) | relative viability ([1]; 0.1 µM) | relative viability ([1]; 0.2 µM, anchor plate) | relative viability ([1]; 0.3162 µM) | relative viability ([1]; 1 µM) | relative viability ([2]; 0.08 µM) | relative viability ([2]; 0.253 µM) | relative viability ([2]; 0.8 µM) | relative viability ([2]; 2.53 µM) | relative viability ([2]; 8 µM) | relative viability ([3]; 0.005 µM) | relative viability ([3]; 0.01581 µM) | relative viability ([3]; 0.1581 µM) | relative viability ([3]; 0.5 µM) | relative viability ([3]; 0.5 µM, anchor plate) | relative viability ([4]; 0.04 µM) | relative viability ([4]; 0.1265 µM) | relative viability ([4]; 0.4 µM) | relative viability ([4]; 1.265 µM) | relative viability ([5]; 0.08 µM) | relative viability ([5]; 0.253 µM) | relative viability ([5]; 0.8 µM) | relative viability ([5]; 2.53 µM) | relative viability ([3]; 0.05 µM)
1 | NCI-H1734 | 0.977 | 1.12 | 1.02 | 0.575 | 0.856 | 0.507 | 1.09 | 0.949 | 0.956 | 0.632 | 0.766 | 1.03 | 1.08 | 0.888 | 1.01 | 0.859 | 0.985 | 1.11 | 0.939 | 0.764 | 1.03 | 0.913 | 0.92 | 0.842 | –
2 | NCI-H1755 | 1.01 | 1.02 | 1.09 | 0.458 | 0.936 | 0.471 | 0.954 | 0.972 | 0.946 | 0.845 | 0.982 | 1.01 | 1.02 | 0.957 | 0.966 | 0.988 | 1.01 | 1.09 | 1.04 | 0.956 | 0.961 | 0.834 | 0.931 | 0.876 | 0.897
3 | NCI-H1792 | 0.912 | 1.02 | 1.02 | 0.71 | 1.08 | 1.01 | 0.904 | 0.956 | 0.845 | 0.76 | 0.863 | 0.956 | 0.936 | 0.693 | 1.06 | 0.664 | – | 1.09 | 0.856 | 0.921 | 0.955 | 0.874 | 0.871 | 0.74 | 0.778
4 | NCI-H1793 | 1.02 | 1.1 | 0.961 | 0.538 | 0.924 | 0.555 | 0.822 | 1.1 | 0.795 | 0.768 | 1.05 | 0.977 | 1.09 | 0.866 | 0.702 | 0.491 | 0.91 | 1.28 | 0.9 | 0.956 | 1.12 | 0.748 | 1.01 | 0.863 | –
5 | NCI-H1915 | 1.01 | 1.01 | 1.05 | 0.72 | 0.99 | 0.89 | 0.987 | 1.05 | 0.959 | 0.862 | 0.823 | 0.968 | 0.963 | 0.923 | 0.886 | 0.789 | 1.02 | 0.974 | 0.955 | 0.857 | 1.03 | 0.973 | 1.01 | 0.96 | 1.05
6 | NCI-H1944 | 1 | 1 | 1.1 | 0.566 | 0.967 | 0.605 | 0.871 | 0.909 | 0.929 | – | 0.9 | 0.942 | 1.09 | 0.913 | 0.892 | 1.05 | 0.92 | 1.07 | 0.907 | 0.874 | 1.12 | 0.907 | 0.898 | 0.87 | 0.766
7 | NCI-H1975 | 0.957 | 0.927 | 0.938 | 0.761 | 0.791 | 0.575 | 0.999 | 0.827 | 0.85 | 0.884 | 0.931 | 0.927 | 1.06 | 0.824 | 0.99 | 1.12 | 0.952 | 1.09 | 0.965 | 0.975 | 0.87 | 0.705 | 0.78 | 0.742 | 1.03
8 | NCI-H1993 | 0.96 | 0.984 | 0.957 | 0.828 | 1.11 | 0.819 | 1.09 | 1.07 | 0.888 | 0.855 | 0.903 | 0.925 | 1.23 | 0.947 | 0.949 | 1.04 | 0.979 | 1.02 | 0.946 | 0.877 | 0.841 | 0.693 | 0.782 | 0.827 | 0.913
9 | NCI-H2009 | 1.07 | 0.994 | 1.1 | – | 1 | 0.834 | 0.999 | 0.991 | 0.911 | 0.81 | 0.905 | 0.964 | 1.14 | 1.04 | 1.04 | 1.16 | 1.01 | 1.01 | 0.963 | 0.762 | 1.12 | 0.996 | 0.924 | 0.899 | 1.02
10 | NCI-H2023 | 0.965 | 0.841 | 0.491 | – | 0.262 | 0.132 | 1 | 1.13 | 0.864 | 0.535 | 0.852 | 0.919 | 1.04 | 0.97 | 0.909 | 0.994 | 1.07 | 1.06 | 0.994 | 0.75 | 1.02 | 0.827 | 0.817 | 0.755 | 0.958
11 | NCI-H2085 | 1.03 | 0.992 | 1.08 | 0.973 | 1.05 | 0.864 | 1.04 | 0.974 | 0.988 | 0.866 | 0.975 | 1.01 | 1.14 | 1.01 | 1.05 | 1.12 | 0.932 | 1.04 | 0.956 | 0.933 | 1.05 | 0.893 | 0.902 | 0.891 | 0.93
12 | NCI-H2087 | 1.02 | 1.08 | 1.26 | 1.24 | 1.23 | 1.24 | 1.06 | 0.963 | 0.941 | 0.915 | 0.924 | 1.01 | 1.16 | 1.01 | 1.09 | 0.952 | 1.12 | 1.14 | 1.04 | 0.794 | 1.32 | 0.781 | 1.07 | 0.849 | –
13 | NCI-H2126 | 0.972 | 1.07 | 1.05 | 1.01 | 1.02 | 1.09 | 0.949 | 1.14 | 0.957 | 0.919 | 0.943 | 1.04 | 1.07 | 0.927 | 0.976 | 0.852 | 1.1 | 1 | 0.992 | 0.923 | 1.01 | 0.826 | 0.822 | 0.807 | 0.901
